Experiments:
TK-10 = experiment: NCI60 five-dose screen; format: cell-based; settings: Homo sapiens, TK-10, renal cancer; for CC50: read-out: LC50 (the source's name)
[1] = system: T47D breast cancer cell line; experiment: Cytotoxicity MTT assay, T47D; format: cell-based, human; settings: Homo sapiens, T47D; MTT, 48 hours
Method: T47D (ATCC HTB-133) was purchased from Biomedia (Thailand) Co., LTD. L929 (ATCC CCL-1) was received as a gift from Prof. Tanapat Palaga, Department of Microbiology, Faculty of Science, Chulalongkorn University, Bangkok, Thailand. The cells were cultured in Dulbecco's Modified Eagle's Medium (DMEM; Gibco) supplemented with 10% fetal bovine serum (FBS; HyClone), 100 U mL^−1 penicillin and 100 µg mL^−1 streptomycin (Gibco) at 37 °C with 5% CO2.
The antiproliferative activity was determined by MTT assay. Briefly, the cells were plated into a 96-well microplate at the density of 10 000 cells per well. The cells were allowed to grow overnight before treated with the solutions of compounds in culture medium at the designated concentrations for 48 hours. The medium was then replaced with MTT solution (0.5 mg mL^−1 MTT in culture medium) and incubated for 3 hours. A 100 µL of DMSO was used to dissolve the produced formazan. Absorbance at 570 nm was then measured using a microplate reader (Varioskan™ LUX multimode microplate reader, Thermo Scientific™). Percent viability was calculated relative to the vehicle control (DMSO).

DU-145 = experiment: NCI60 five-dose screen; format: cell-based; settings: Homo sapiens, DU-145, prostate cancer; for CC50: read-out: LC50 (the source's name)
NCI/ADR-RES = experiment: NCI60 five-dose screen; format: cell-based, human; settings: Homo sapiens, ovarian cancer
OVCAR-3 = experiment: NCI60 five-dose screen; format: cell-based; settings: Homo sapiens, OVCAR-3, ovarian cancer; for CC50: read-out: LC50 (the source's name)
Human CYP19 (aromatase) = molecular target: T1, Human CYP19 (aromatase) (Homo sapiens, UniProt P11511); experiment: Aromatase inhibition assay (DBF fluorometric substrate); format: biochemical; settings: active defined as IC50 < 12.5 µM
T1 construct: purchased GENTEST, Woburn, MA 456260; host or cells: baculovirus/insect cells
T1 sequence (P11511 1-503): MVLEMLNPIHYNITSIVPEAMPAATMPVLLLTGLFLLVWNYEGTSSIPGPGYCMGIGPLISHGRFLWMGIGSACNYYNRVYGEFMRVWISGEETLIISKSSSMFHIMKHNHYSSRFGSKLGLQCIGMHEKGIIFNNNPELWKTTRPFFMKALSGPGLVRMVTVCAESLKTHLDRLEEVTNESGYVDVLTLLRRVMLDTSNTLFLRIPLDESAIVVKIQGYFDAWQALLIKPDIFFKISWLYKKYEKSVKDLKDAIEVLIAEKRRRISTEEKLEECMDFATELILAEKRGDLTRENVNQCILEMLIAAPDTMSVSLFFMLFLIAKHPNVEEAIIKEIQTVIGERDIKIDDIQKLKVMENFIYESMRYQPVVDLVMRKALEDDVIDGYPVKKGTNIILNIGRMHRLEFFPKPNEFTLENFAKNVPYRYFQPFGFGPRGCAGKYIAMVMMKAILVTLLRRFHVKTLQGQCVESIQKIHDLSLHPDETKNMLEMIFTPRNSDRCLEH
Method: Aromatase enzyme was purchased from GENTEST, Woburn, MA01801, USA (Supersom human CYP19+oxidoreductase, baculovirus/insect cell-expressed; Product No. 456260). The aromatase inhibitory activity was performed using Human CYP19 enzymes and DBF as a fluorometric substrate as described by Stresser, et al.[41] with minor modifications. The mixture, containing 100 µL of cofactor/serial dilution buffer was pre-incubated in 37 °C for 10 min. […] After incubation at 37 °C for 30 min, the reaction was stopped by addition of 50 µL of 2.2 M NaOH. Fluorescence signal was monitored using an excitation wavelength of 490 nm and emission wavelength of 530 nm.

T-47D = experiment: NCI60 five-dose screen; format: cell-based; settings: Homo sapiens, T47D, breast cancer; for CC50: read-out: LC50 (the source's name)
MDA-MB-231/ATCC = experiment: NCI60 five-dose screen; format: cell-based; settings: Homo sapiens, breast cancer; for CC50: read-out: LC50 (the source's name)
SF-539 = experiment: NCI60 five-dose screen; format: cell-based; settings: Homo sapiens, SF-539, CNS cancer; for CC50: read-out: LC50 (the source's name)
EKVX = experiment: NCI60 five-dose screen; format: cell-based; settings: Homo sapiens, NSC lung cancer; for CC50: read-out: LC50 (the source's name)
ACHN = experiment: NCI60 five-dose screen; format: cell-based; settings: Homo sapiens, renal cancer; for CC50: read-out: LC50 (the source's name)
HCC-2998 = experiment: NCI60 five-dose screen; format: cell-based; settings: Homo sapiens, HCC-2998, colon cancer; for CC50: read-out: LC50 (the source's name)
SW-620 = experiment: NCI60 five-dose screen; format: cell-based; settings: Homo sapiens, SW-620, colon cancer; for CC50: read-out: LC50 (the source's name)
OVCAR-5 = experiment: NCI60 five-dose screen; format: cell-based; settings: Homo sapiens, OVCAR-5, ovarian cancer; for CC50: read-out: LC50 (the source's name)
HT29 = experiment: NCI60 five-dose screen; format: cell-based; settings: Homo sapiens, HT-29, HT29, colon cancer; for CC50: read-out: LC50 (the source's name)
K-562 = experiment: NCI60 five-dose screen; format: cell-based; settings: Homo sapiens, K562, K-562, leukemia; for CC50: read-out: LC50 (the source's name)
NCI-H522 = experiment: NCI60 five-dose screen; format: cell-based; settings: Homo sapiens, NCI-H522, NSC lung cancer; for CC50: read-out: LC50 (the source's name)
M14 = experiment: NCI60 five-dose screen; format: cell-based; settings: Homo sapiens, M14, melanoma; for CC50: read-out: LC50 (the source's name)
MCF7 = experiment: NCI60 five-dose screen; format: cell-based; settings: Homo sapiens, MCF7, breast cancer; for CC50: read-out: LC50 (the source's name)
SK-MEL-2 = experiment: NCI60 five-dose screen; format: cell-based; settings: Homo sapiens, SK-MEL-2, melanoma; for CC50: read-out: LC50 (the source's name)
UACC-62 = experiment: NCI60 five-dose screen; format: cell-based; settings: Homo sapiens, UACC-62, melanoma; for CC50: read-out: LC50 (the source's name)
SNB-19 = experiment: NCI60 five-dose screen; format: cell-based; settings: Homo sapiens, SNB-19, CNS cancer; for CC50: read-out: LC50 (the source's name)

CCOC(=O)c1cc(/C=N/NC(=O)c2[nH]c3ccc(Br)cc3c2-c2ccccc2)c[nH]1 [Derivative 3v, Ethyl (E)-4-((2-(5-bromo-3-phenyl-1H-indole-2-carbonyl)hydrazono)methyl)-1H-pyrrole-2-carboxylate]
GI50 (TK-10): 12.5 µM | CC50 (TK-10): 80.7 µM | IC50 [1]: 24.9 ± 8.4 µM | GI50 (DU-145): 3.36 µM | CC50 (DU-145): 33.4 µM | GI50 (NCI/ADR-RES): 2.23 µM | CC50 (NCI/ADR-RES; read-out: LC50 (the source's name)): 21.2 µM | GI50 (OVCAR-3): 3.23 µM | CC50 (OVCAR-3): 33.4 µM | IC50 (Human CYP19 (aromatase)): 2.5 ± 0.6 µM | GI50 (T-47D): 5.88 µM | CC50 (T-47D): > 100 µM | GI50 (MDA-MB-231/ATCC): 3.27 µM | CC50 (MDA-MB-231/ATCC): 33.8 µM | GI50 (SF-539): 2.02 µM | CC50 (SF-539): 13.5 µM | GI50 (EKVX): 7.14 µM | CC50 (EKVX): 60.7 µM | GI50 (ACHN): 4.87 µM | CC50 (ACHN): 49.9 µM | GI50 (HCC-2998): 4.17 µM | CC50 (HCC-2998): 42.1 µM | GI50 (SW-620): 4.41 µM | CC50 (SW-620): 40.1 µM | GI50 (OVCAR-5): 3.49 µM | CC50 (OVCAR-5): 37.4 µM | GI50 (HT29): 3.33 µM | CC50 (HT29): 35.3 µM | GI50 (K-562): 4.59 µM | CC50 (K-562): > 100 µM | GI50 (NCI-H522): 2.41 µM | CC50 (NCI-H522): 61.2 µM | GI50 (M14): 3.54 µM | CC50 (M14): 41.3 µM | GI50 (MCF7): 3.03 µM | CC50 (MCF7): 40.3 µM | GI50 (SK-MEL-2): 4.37 µM | CC50 (SK-MEL-2): 47.3 µM | GI50 (UACC-62): 3.18 µM | CC50 (UACC-62): 40.7 µM | GI50 (SNB-19): 4.08 µM | CC50 (SNB-19): 43.4 µM

O=C(N/N=C/c1cc(Cl)c[nH]1)c1[nH]c2ccc(Br)cc2c1-c1ccccc1 [Derivative 3h, (E)-5-Bromo-N′-((4-chloro-1H-pyrrol-2-yl)methylene)-3-phenyl-1H-indole-2-carbohydrazide]
GI50 (TK-10): 3.91 µM | CC50 (TK-10): 83.2 µM | IC50 [1]: 2.4 ± 1.8 µM | GI50 (DU-145): 0.352 µM | CC50 (DU-145): 27.2 µM | GI50 (NCI/ADR-RES): 0.2 µM | GI50 (OVCAR-3): 0.27 µM | CC50 (OVCAR-3): 19.7 µM | IC50 (Human CYP19 (aromatase)): 1.8 ± 0.4 µM | GI50 (T-47D): 0.546 µM | CC50 (T-47D): 92.6 µM | GI50 (MDA-MB-231/ATCC): 0.296 µM | CC50 (MDA-MB-231/ATCC): 26.9 µM | GI50 (SF-539): 0.231 µM | CC50 (SF-539): 22.1 µM | GI50 (EKVX): 1.28 µM | CC50 (EKVX): > 100 µM | GI50 (ACHN): 0.493 µM | CC50 (ACHN): 32.1 µM | GI50 (HCC-2998): 0.224 µM | CC50 (HCC-2998): 4.2 µM | GI50 (SW-620): 0.328 µM | CC50 (SW-620): 80.9 µM | GI50 (OVCAR-5): 0.473 µM | CC50 (OVCAR-5): 36 µM | GI50 (HT29): 0.287 µM | CC50 (HT29): 7.2 µM | GI50 (K-562): 0.234 µM | CC50 (K-562): 5.64 µM | GI50 (NCI-H522): 0.211 µM | CC50 (NCI-H522): > 100 µM | GI50 (M14): 0.305 µM | CC50 (M14): 50.3 µM | GI50 (MCF7): 0.309 µM | CC50 (MCF7): 53.5 µM | GI50 (SK-MEL-2): 0.26 µM | CC50 (SK-MEL-2): 47.9 µM | GI50 (UACC-62): 0.559 µM | CC50 (UACC-62): 66.3 µM | GI50 (SNB-19): 0.638 µM | CC50 (SNB-19): 61.9 µM
